Test systems include A498; RPMI-8226; Hs-578T; TK-10; OVCAR-3; SK-MEL-2; NCI/ADR-RES; LOX IMVI; MOLT-4; K562; UACC-257; COLO 205; SK-MEL-5; BT-549; MDA-MB-435; SK-OV-3; PC-3; CCRF-CEM; DU-145; KM12.
What all share (test): NCI anticancer screen, dose series, 48 h

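All cell lines were grown in 96-well plates and treated with compound for 48 hours. GI50 is the concentration that inhibits growth by half.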 Active and inactive are the calls of the source. No stated cut-off is given here; in the data, active = GI50 up to about 1.1 µM and inactive = higher.

On to `Oc1nc2c(c(-c3ccc(Br)cc3)n1)COC/C2=C\c1ccc(Br)cc1`, for which the GI50 in the assay on A498, in the assay on RPMI-8226, in the assay on Hs-578T, in the assay with TK-10, in the assay on OVCAR-3 and in the assay on SK-MEL-2 was > 50 µM (inactive) each time. For the same compound, the GI50 in the assay with NCI/ADR-RES, in the assay on LOX IMVI, with MOLT-4, with K562, in the assay with UACC-257 and in the assay with COLO 205 was > 50 µM (inactive) each time. Also, the GI50 was > 50 µM (inactive) in the assay with SK-MEL-5; > 50 µM (inactive) in the assay with BT-549; 29.4 µM (inactive) with MDA-MB-435; > 50 µM (inactive) in the assay with SK-OV-3; > 50 µM (inactive) in the assay on PC-3; > 50 µM (inactive) with CCRF-CEM. Further, the GI50 in the assay on DU-145 and in the assay with KM12 was > 50 µM (inactive) in each case.

With `COC1CCC(O)C(/C=C/[N+](=O)[O-])C1` (stereo not given), the GI50 in the assay on A498 was 3.99 µM (inactive); in the assay with RPMI-8226, 1.55 µM (inactive); in the assay on Hs-578T, 2.99 µM (inactive); in the assay with TK-10, 4.72 µM (inactive); with OVCAR-3, 8.3 µM (inactive); in the assay on SK-MEL-2 it was 10.2 µM (inactive). Besides, the GI50 was 15 µM (inactive) in the assay on NCI/ADR-RES; 1.54 µM (inactive) with LOX IMVI; 2.18 µM (inactive) in the assay with MOLT-4; 3.03 µM (inactive) with K562; 2.01 µM (inactive) in the assay on UACC-257; 2.28 µM (inactive) in the assay on COLO 205. Further, the GI50 is 4.06 µM (inactive) in the assay with SK-MEL-5; 2.58 µM (inactive) with BT-549; 1.65 µM (inactive) in the assay with MDA-MB-435; 10.1 µM (inactive) with SK-OV-3; 2.06 µM (inactive) in the assay on PC-3; 2.69 µM (inactive) in the assay with CCRF-CEM. Further, the results for the GI50 in the assay on DU-145 and in the assay with KM12 were 3.64 µM (inactive) and 4.14 µM (inactive), respectively.

Regarding `OC1(c2ccc(Cl)cc2)c2ccc(CN3CCCC3)cc2C2=NCCN21` (stereo not given), the GI50 with A498 was 13.1 µM (inactive); in the assay on RPMI-8226 it was 10.2 µM (inactive); in the assay on Hs-578T, 12.3 µM (inactive); in the assay on TK-10 it was 4.98 µM (inactive); with OVCAR-3, 16.1 µM (inactive); in the assay on SK-MEL-2 it was 19 µM (inactive). In addition, the GI50 in the assay with NCI/ADR-RES was > 100 µM (inactive); in the assay on LOX IMVI, 13.9 µM (inactive); in the assay with MOLT-4, 11.6 µM (inactive); in the assay on K562, 16.1 µM (inactive); in the assay on UACC-257, 12.5 µM (inactive); in the assay on COLO 205 it was 10.8 µM (inactive). In addition, the GI50 with SK-MEL-5 was 10.5 µM (inactive); in the assay with BT-549 it was 8.77 µM (inactive); in the assay on MDA-MB-435 it was 10.5 µM (inactive); in the assay with SK-OV-3 it was 14.2 µM (inactive); in the assay on PC-3, 13.3 µM (inactive); in the assay with CCRF-CEM, 12.2 µM (inactive). Also, the results for the GI50 with DU-145 and in the assay on KM12 were 16 µM (inactive) and 12.8 µM (inactive), respectively.

Regarding `COCC1OC(OC2OCC3OC4(OCC(O)(C(C)OC)C5OCOC54)OC3C2OC)C(OC)C(O)C1OC1OC(C)C(OC)C(OC2OC(C)C3OC4(CC(O)C(OC5CC(OC6CC(C)([N+](=O)[O-])C(OC)C(C)O6)C(OC(=O)c6c(C)c(Cl)c(O)c(Cl)c6OC)C(C)O5)C(C)O4)OC3(C)C2O)C1O` (stereo not given), the GI50 in the assay with A498, in the assay with RPMI-8226, in the assay with Hs-578T, with TK-10, in the assay on OVCAR-3 and in the assay on SK-MEL-2 was > 100 µM (inactive) each time. Moreover, the GI50 in the assay on NCI/ADR-RES, in the assay with LOX IMVI, in the assay with MOLT-4, in the assay with K562, with UACC-257 and with COLO 205 was > 100 µM (inactive) in each case. Also, the GI50 in the assay on SK-MEL-5, in the assay with BT-549, in the assay with MDA-MB-435, in the assay on SK-OV-3, in the assay with PC-3 and with CCRF-CEM was > 100 µM (inactive) throughout. The GI50 with DU-145 and in the assay on KM12 was > 100 µM (inactive) in each case.

In the case of `COc1ccccc1C[C@@H]1OC2(C=CC(=O)CC2SC(=O)c2ccccc2)O[C@H]1Cc1ccccc1OC` (stereo not given in full), the GI50 is 2.46 µM (inactive) in the assay on A498; 0.3 µM (active) in the assay on RPMI-8226; 1.25 µM (inactive) in the assay on Hs-578T; 1.54 µM (inactive) with TK-10; 1.59 µM (inactive) in the assay with OVCAR-3; 1.71 µM (inactive) with SK-MEL-2. The GI50 is 1.46 µM (inactive) in the assay on NCI/ADR-RES; 0.582 µM (active) with LOX IMVI; 0.449 µM (active) in the assay on MOLT-4; 2.51 µM (inactive) with K562; 1.51 µM (inactive) in the assay with UACC-257; 1.69 µM (inactive) in the assay on COLO 205. Also, the GI50 in the assay on SK-MEL-5 was 1.62 µM (inactive); in the assay on BT-549 it was 0.318 µM (active); in the assay on MDA-MB-435 it was 1.94 µM (inactive); in the assay on SK-OV-3, 2.17 µM (inactive); with PC-3, 1.88 µM (inactive); in the assay on CCRF-CEM, 0.294 µM (active). Also, the GI50 in the assay with DU-145 is 3.78 µM (inactive); with KM12, 2.48 µM (inactive).

Turning to `O=C1c2c(Br)sc(Br)c2[C@H]2OC(=S)N[C@@H]12`, the GI50 in the assay with A498 was 18.3 µM (inactive); in the assay on RPMI-8226, 4.68 µM (inactive); in the assay on Hs-578T it was 11.8 µM (inactive); in the assay on TK-10, 20.2 µM (inactive); in the assay with OVCAR-3 it was 2.6 µM (inactive); with SK-MEL-2, 13.6 µM (inactive). Also, the GI50 is 8.51 µM (inactive) in the assay with NCI/ADR-RES; 3.02 µM (inactive) with LOX IMVI; 2.17 µM (inactive) in the assay with MOLT-4; 2.29 µM (inactive) in the assay on K562; 7.08 µM (inactive) in the assay on UACC-257; 2.51 µM (inactive) with COLO 205. In addition, the GI50 with SK-MEL-5 is 11 µM (inactive); in the assay with BT-549, 10 µM (inactive); in the assay on MDA-MB-435, 2.96 µM (inactive); in the assay on SK-OV-3, 15.7 µM (inactive); in the assay with PC-3, 4.07 µM (inactive); in the assay with CCRF-CEM, 0.624 µM (active). The GI50 in the assay with DU-145 is 12.8 µM (inactive); in the assay with KM12, 14.4 µM (inactive).

On to `C=C(Cl)/C(=C/Cl)CCC(Br)C(C)(C)Cl.C=C(Cl)/C(=C\Cl)CCC(Br)C(C)(C)Cl` (stereo not given), for which the GI50 with A498, in the assay on RPMI-8226, in the assay on Hs-578T, with TK-10, in the assay on OVCAR-3 and in the assay with SK-MEL-2 was > 10 µM (inactive) in each case. Also, the GI50 is > 10 µM (inactive) with NCI/ADR-RES; > 10 µM (inactive) with LOX IMVI; 3.1 µM (inactive) with MOLT-4; 5.43 µM (inactive) with K562; > 10 µM (inactive) in the assay with UACC-257; > 10 µM (inactive) with COLO 205. Also, the GI50 with SK-MEL-5 was > 10 µM (inactive); with BT-549, > 10 µM (inactive); with MDA-MB-435 it was > 10 µM (inactive); in the assay with SK-OV-3, > 10 µM (inactive); in the assay on PC-3, > 10 µM (inactive); in the assay on CCRF-CEM, 2.66 µM (inactive). Further, the GI50 with DU-145 and in the assay with KM12 was > 10 µM (inactive) in each case.

Source of the values: ChEMBL document CHEMBL1201862, “PubChem BioAssay data set” (2004).
